The values below come from article PMC6472966 (Analytical and bioanalytical chemistry, 2019).

One series relates to HeLa cells. The format is cell-based. As to conditions: 10 μM peptide, 60 min at 37°C, hierarchical cluster analysis, Fig. 4a.
For series [1] the following is noted: bulk, off-chip studies; cited from earlier work.
The conditions of series [2]: cited from earlier work.
For series [3] the following is noted: at high concentrations; cited from earlier work.

As to FAM-RRRRRRRRR [ARG], the “normalized fluorescence of the largest cluster (subpopulation)” value with HeLa cells is on record as ~ 1200. In addition, the “permeability efficiency on average compared to OWRWR and RWRWR” value in series [1] is listed as “higher permeability efficiencies”.

Turning to Ac-OWVRVpGO(FAM)WIRQ-NH2 [OWRWR], the “stability under intracellular conditions compared to TAT and ARG” value in series [2] is on record as “enhanced stability”.

In the case of FAM-YGRKKRRQRRR [TAT], the cytotoxicity entry in series [3] is reported as “high cytotoxicity”. The “permeability efficiency on average compared to OWRWR and RWRWR” value in series [1] was “higher permeability efficiencies”.
